Results on 1 compound are retold here after US20160000796A1, “PHARMACEUTICAL COMPOSITION FOR USE IN PREVENTION OR TREATMENT OF CANCER” (priority 2013, published 2016).

One experiment deals with Rad51, γH2AX and PARP. The experiment in a line: Induction of DNA repair proteins (immunostaining). The conditions noted are these: ED40515 (−) versus Jurkat; 100 μM; 48 hours. The class given is cell-based. Here is the method: To an ATL cell line, ED40515 (−), or a non-ATL cell line, Jurkat, DMSO (solvent control) or abacavir was added at a concentration of 100 μM. The cells were cultured for 48 hours. The cells were fixed on slides, immuno-stained for Rad51, γH2AX and PARP, and observed by a fluorescent microscope. At least 70 cells per group were observed and the ratio of cells positive for each protein was calculated. Rad51, which is a homologue of a RecA protein of Escherichia coli, is involved in repair of double-strand DNA break. γH2AX, which is a phosphorylated histone protein, is involved in repair of double-strand DNA break. PARP, which is a poly(ADP-ribose) synthetase, is involved in repair of single-strand DNA break.

The subject of experiment [1] is ATL43T (non-virus-producing ATL cell line). The experiment in a line: Cellular proliferation (MTS assay), ATL43T. The experiment is classed as cell-based. The method, then: (§1) Each nucleoside analogue reverse transcriptase inhibitor was added to the medium for cells at a final concentration of 100 μM. Cells were seeded on a 96-well plate at a concentration of 1×10^4 cells/100 μL/well and cultured for 4 hours (Day 0), 48 hours (Day 2) or 96 hours (Day 4). A medium added DMSO (solvent control) alone was used as a control. Cellular proliferation was examined by MTS assay. Specifically, after the cells were cultured for a predetermined time, a reagent for cellular proliferation test, Aqueous One Solution Cell Proliferation (trade name, manufactured by Promega), was added to the cells. Four hours later, absorbance at 490 nm was measured. The cellular proliferation was represented by a ratio relative to that of the control (solvent control) on Day 0 that was regarded as 1.
(§2) This example used HTLV-1-infected cell lines (non-virus-producing ATL cell lines): ED40515 (−), ED40515 (+), and ATL43T (all were provided by Prof. Michiyuki Maeda who produced the cells); and SYK-11L (+) (prepared in the laboratory of the inventors).
(§3) The six types of nucleoside analogue reverse transcriptase inhibitors as used in Example 1 were used and cellular proliferation was examined in the same manner as in Example 1. […]

The next experiment has as its system HTLV-1. As to the kind of experiment: Measurement of amount of virus (HTLV-1 P19 ELISA), MT2. The experiment is classed as cell-based, human T-cell leukemia virus type 1. To be noted: 100 μM, Day 0, 2, 4, 7, compared among six NRTIs. The method, then: HTLV-1-producing cell lines, MT2 (transformant with HTLV-1, JCRB cell No: JCRB1210) and HUT102 (ATL-derived cell line, ATCC No: TIB-162), were used.
Each nucleoside analogue reverse transcriptase inhibitor was added to the medium for cells at a final concentration of 100 μM. Cells were seeded on a 96-well plate at a concentration of 1×10^4 cells/100 μL/well and cultured for 0 hour (Day 0), 48 hours (2 days), 96 hours (4 days) or 168 hours (7 days). At each time point, the medium was collected. The amount of virus contained in the medium collected at each time point (pg/mL) was measured by HTLV-1 P19 ELISA kit (manufactured by Zeptometrix).

Experiment [2] concerns NCI_H522 (lung cancer cell line lacking TDP1 expression). The experiment in a line: Cellular proliferation (MTS) of lung cancer cell line NCI_H522. The experiment is classed as cell-based. The conditions noted are these: 100, 200 or 300 μM, 72 hours. Here is the method:
Lung cancer cell lines lacking TDP1 expression, HOP—62 and NCI_H522, were used. NCI_H1299, a lung cancer cell line expressing TDP1, was used as a control. HOP—62 and NCI_H522 were provided by Dr. Pommier (DNA Repair. 2014 January; 13: 1-9).
Abacavir was added to each of the cell lines at a concentration of 0 μM (DMSO was added instead of abacavir), 100 μM, 200 μM or 300 μM. The cells were seeded on a 96-well plate at a concentration of 3×10^3 cells/100 μL/well and cultured for 4 hours or 72 hours. After the culture of a predetermined time, MTS assay was performed using a reagent for cellular proliferation, test, Aqueous One Solution Cell Proliferation (trade name, manufactured by Promega), in the same manner as in Example 1. The cellular proliferation was represented by a ratio relative to that of the control (solvent control) on Day 0 that was regarded as 100%.

Experiment [3] deals with ED40515 (−) (non-virus-producing ATL cell line). As to the kind of experiment: Cellular proliferation (MTS assay), ED40515 (−). The experiment is classed as cell-based. The method, then:
as §1, §2, §3
A general note: Tetrazolium dyes change colour on reduction, which living cells bring about.

For experiment [4], the system named is SUDHL6 (non-HTLV-1-infected cell line). As to the kind of experiment: Cellular proliferation (MTS assay), SUDHL6. The class given is cell-based. To be noted: 100 μM. Here is the method:
as §1
This example used non-HTLV-1-infected cell lines: Jurkat (cell line derived from human T-cell leukemia, ATCC No: TIB-152), Kit225 (cell line derived from chronic T-cell leukemia, established in the laboratory of the inventors, Blood. 1987 October; 70 (4): 1069-72.), H9 (cell line derived from cutaneous T-cell lymphoma, ATCC No: HTB-176) and SUDHL6 (cell line derived from diffuse B cell lymphoma).
The six types of nucleoside analogue reverse transcriptase inhibitors as used in Example 1 were used and cellular proliferation was examined in the same manner as in Example 1.

For experiment [5], the system named is ATL cell line, ED40515 (−). As to the kind of experiment: Cell-cycle analysis by flow cytometry (PI), ED40515 (−). The experiment is classed as cell-based. The conditions noted are these: 10 μM or 100 μM, 24 hours. Here is the method: To an ATL cell line, ED40515 (−), or a non-ATL cell line, Jurkat, DMSO (solvent control), adriamycin (ADR, positive control) or abacavir (10 μM or 100 μM) was added.

As for `Nc1nc(NC2CC2)c2ncn([C@H]3C=C[C@@H](CO)C3)c2n1` [abacavir, (−)-(1S,4R)-4-[2-amino-6-(cyclopropylamino)-9H-purin-9-yl]-2-cyclopentene-1-methanol], in the experiment on Rad51, γH2AX and PARP, the “ratio of PARP positive cells” value was “induces Rad51, γH2AX, and PARP specifically in an ATL cell line”. In addition, the “ratio of Rad51 positive cells” value in the experiment on Rad51, γH2AX and PARP is “induces Rad51, γH2AX, and PARP specifically in an ATL cell line”. Also, in the experiment on Rad51, γH2AX and PARP, the “ratio of γH2AX positive cells” value was “induces Rad51, γH2AX, and PARP specifically in an ATL cell line”. Moreover, the cellular proliferation entry is “strong suppressive effect” in experiment [1] (100 μM); “suppressed cellular proliferation of HOP—62 and NCI_H522 lacking TDP1 expression in a concentration dependent manner” in experiment [2]; “strong suppressive effect” in experiment [3] (100 μM); “did not exhibit a suppressive effect” in experiment [4]. The “cellular proliferation, dose dependence” value is reported as “suppressed cellular proliferation of all the cell lines in a dose-dependent manner” in experiment [1] (10-100 μM, Day 0, 2, 4) and “suppressed cellular proliferation of all the cell lines in a dose-dependent manner” in experiment [3] (10-100 μM, Day 0, 2, 4). Also, in the experiment with HTLV-1, the “viral production (amount of virus in the medium)” value is “most strongly suppressed”. Further, the “cell cycle (ratio of cells in G0G1/S/G2 phase)” value in experiment [5] is recorded as “induced the S/G2 arrest”.
